Measurements reported in US5958885A, “Peptide and formulations thereof inhibiting elevations of triglyceride levels in blood” (Hankyu Kyoei Bussan Co., Ltd., priority 1996, dated 1999).
Residues, ends and D or L forms follow the SMILES beside them.

Key:
serum TG levels = assay: Serum TG elevation inhibiting action, peptide given 1 hr after olive oil; assay type: in vivo, male ICR mice; conditions: for ID50 (dose which inhibits in vivo 50% of serum TG elevations): olive oil 18 g/kg oral, peptide oral 1 hr later, serum TG another 1 hr later; for Specific Activity (ratio to mg protein): relative to globin proteolysate (GD) = 1, Table 3
Protocol: Subsequently, serum TG elevation inhibiting action was examined as described below on the peptide (VVYP) having the amino acid sequence shown in SEQ ID NO: 1 synthesized in Example 2, peptides Val-Tyr-Pro (vYP) and Val-Thr-Leu (VTL) synthesized in the same manner as described in Example 2, and the globin proteolysate (GD) obtained in the Reference Example.
Olive oil (18 g/kg body weight) was administered orally to male ICR mice (6 week old, body weight: 25-28 g) which fasted for an overnight. One hour thereafter, an aqueous solution of the above peptide (0.3 ml/mouse) was administered orally. […] A dose-response curve was obtained from the dose of the peptide and inhibition rate of TG, and the 50% inhibition dose ID50 was calculated. Then, the activity of individual peptides was compared with each other.

[1] = tested on: pepsin (artificial gastric juice); assay: In vitro stability against digestive enzymes, artificial gastric juice; assay type: in vitro ADME; conditions: for Ratio of recovery: after pepsin in 0.1 N HCl, 37° C., 4 hr, HPLC peak area, before treatment = 100
Protocol: (§1) In vitro stability test against digestive enzymes was conducted on the peptide (VVYP) having the amino acid sequence shown in SEQ ID NO: 1 synthesized in Example 2 and peptides Val-Tyr-Pro (VYP) and Val-Thr-Leu (VTL) synthesized in the same manner as described in Example 2.
(§2) Briefly, to 127.5 ml of 0.1 N HCl solution of the above VVYP, VYP or VTL, 22.5 ml of 0.67 mg/ml pepsin (artificial gastric juice) dissolved in 0.1 N HCl was added and reacted at 37° C. for 4 hr. Thereafter, 75 ml of 0.53 mg/ml pancreatin (artificial pancreatic juice) dissolved in […] of 0.5 N borate buffer (pH 8.0) was added thereto and reacted at 37° C. for 2 hr. Samples before digestion with artificial gastric juice, after digestion with artificial gastric juice, and after digestion with artificial pancreatic juice were analyzed under the following conditions.
(§3) Equipment used: HPLC (Waters; LC Modulel)
(§4) Column: SuperPac Pep-S, 5 μm (PHARMACIA K.K.)
(§5) Mobile phase A: 0.1% trifluoroacetic acid B: Acetonitrile-water (50:50, containing 0.1% tri-fluoroacetic acid)
(§6) Flow rate: 0.8 ml/min (VYP, VTL), 0.4 ml/min (VVYP)
(§7) Detection wavelength: 220 nm
(§8) Temperature: room temperature
(§9) Amount applied: 20 μl of 50-fold dilution

[2] = tested on: pancreatin (artificial pancreatic juice); assay: In vitro stability against digestive enzymes, artificial gastric juice then artificial pancreatic juice; assay type: in vitro ADME; conditions: for HPLC peak of the peptide after digestion: after digestion with artificial gastric and pancreatic juices; for Ratio of recovery: after pepsin 37° C. 4 hr, then pancreatin pH 8.0, 37° C., 2 hr, HPLC peak area, before treatment = 100
Protocol: as §1, §2, §3, §4, §5, §6, §7, §8, §9

male and female ICR mice = assay: Toxicological study, oral administration; assay type: in vivo; conditions: 10 g/kg body weight or more (maximum possible dose)
Protocol: The peptide (VVYP) having the amino acid sequence shown in SEQ ID NO: 1 synthesized in Example 2 was administered orally to male and female ICR mice in an amount of 10 g/kg body weight or more (maximum possible dose).

Row | HPLC peak of the peptide after digestion ([1]; after digestion with artificial gastric juice) | SMILES | ID50 (dose which inhibits in vivo 50% of serum TG elevations) (serum TG levels) | Specific Activity (ratio to mg protein) (serum TG levels) | HPLC peak of the peptide after digestion [2] | Ratio of recovery [2] | Death (male and female ICR mice) | Ratio of recovery [1]
1 | disappeared | CC(C)C[C@H](NC(=O)[C@@H](NC(=O)[C@@H](N)C(C)C)[C@@H](C)O)C(=O)O [VTL, Val-Thr-Leu] (H-Val-Thr-Leu-OH) | 0.05 mg protein/mouse | 448 |  |  |  | 
2 |  | CC(C)[C@H](N)C(=O)N[C@H](C(=O)N[C@@H](Cc1ccc(O)cc1)C(=O)N1CCC[C@H]1C(=O)O)C(C)C [VVYP, Val-Val-Tyr-Pro] (H-VVYP-OH) |  | 6500 | remained | 101 | no death occurred | 108
3 |  | CC(C)[C@H](N)C(=O)N[C@@H](Cc1ccc(O)cc1)C(=O)N1CCC[C@H]1C(=O)O [VYP, Val-Tyr-Pro] (H-Val-Tyr-Pro-OH) | 0.02 mg protein/mouse | 1130 | remained | 109 |  | 108
